How the values were obtained:
[1] = tested on: LPS-induced inflammation model in rats; format: in vivo, Sprague–Dawley rats; settings: for ED50 based on neutrophil infiltration and cytokine production data: IT instillation of nanosuspension; for ED50 based on neutrophil infiltration and cytokine production data / EDmax / dose of maximum effect (EDmax): rat LPS model; for ED50 in the LPS assay: IT nanosuspension prior to LPS challenge, inhibition of neutrophil infiltration or TNFα production in BALF; for EDmax / dose of maximum effect (EDmax): IT nanosuspension
adrenal [2] = assay: six-day repeat dose side effect study: adrenal involution; format: in vivo, Sprague–Dawley rats; settings: at the ED50 dose (30 μg fluticasone, 100 μg ciclesonide), IT once daily, 6 days
thymus [3] = assay: six-day repeat dose side effect study: thymus involution; format: in vivo, Sprague–Dawley rats; settings: at the ED50 dose, IT once daily, 6 days
[4] = tested on: plasma corticosterone (HPA axis suppression); assay: six-day repeat dose side effect study: plasma corticosterone level; format: in vivo, Sprague–Dawley rats; settings: ED50 doses, 30 μg fluticasone, 2 h following the last dose
[5] = particle size distribution before and after wet milling; format: physicochemical; settings: for particle size D50 of the bulk material: before micronization; for particle size D50 after micronization: nanosuspension, wet milling
[6] = tested on: antigen-induced airway inflammation (eosinophils in BALF); settings: cited from earlier work; for ED50, antigen-induced influx of eosinophils in airway BALF and lung tissue: IT-administered; for ED50 for the inhibition of eosinophil infiltration into BALF: as quoted with the 7-day side effect study
adrenal [7] = settings: 7-day study, cited from earlier work
thymus [8] = settings: 7-day study, cited from earlier work
[9] = tested on: plasma corticosterone (HPA axis suppression); settings: fluticasone 0.1 mg/kg; ciclesonide 0.01 to 0.1 mg/kg/day; 28-day; cited from earlier work
[10] = cited from earlier work
[11] = background statement, no reference given; cited from earlier work
bone growth = settings: 7-day study; cited from earlier work
[12] = six-day repeat dose side effect study: plasma drug exposure by LC/MS/MS; format: in vivo, Sprague–Dawley rats; settings: 2 h post the last dose
[13] = IT administration, on the basis of dose

Row | particle size D50 of the bulk material [5] [μm] | particle size D50 after micronization [5] [μm] | SMILES | ED50 based on neutrophil infiltration and cytokine production data [1] [mg] | ED50 in the LPS assay [1] [µg] | EDmax [1] [mg] | dose of maximum effect (EDmax) [1] [µg] | average adrenal involution (adrenal [2]) [%] | average thymus involution (thymus [3]) [%] | ED50, antigen-induced influx of eosinophils in airway BALF and lung tissue [6] [mg/kg] | ED50 for the inhibition of eosinophil infiltration into BALF [6] [mg/kg] | effect on plasma corticosterone levels [9] | plasma protein binding [10] [%] | further results
1 | 35 | 0.24 | CCC(=O)O[C@]1(C(=O)SCF)[C@H](C)C[C@H]2[C@@H]3C[C@H](F)C4=CC(=O)C=C[C@]4(C)[C@@]3(F)[C@@H](O)C[C@@]21C [fluticasone, fluticasone propionate] | 0.03 | 30 | 0.1 | 100 | 16.6 ± 5.1 | 59.5 ± 5.8 | 0.068 | 0.095 | significantly suppressed | 90 | fold lower level of plasma corticosterone than 100 μg ciclesonide [4]: approximately 10; fold more potent at inducing adrenal involution compared to ciclesonide (adrenal [7]; [13]): approximately 44; fold more potent at inducing thymus involution compared to ciclesonide (thymus [8]; [13]): sixfold; bioavailability [11]: < 1%; clearance [11]: ~ liver blood flow
2 | 56 | 0.22 | CC(C)C(=O)OCC(=O)[C@@]12O[C@H](C3CCCCC3)O[C@@H]1C[C@H]1[C@@H]3CCC4=CC(=O)C=C[C@]4(C)[C@H]3[C@@H](O)C[C@@]12C [ciclesonide] | 0.1 | 100 | 0.3 | 300 | 7.6 ± 5.3 | 41.0 ± 4.3 | 0.49 | 0.75 | did not change corticosterone levels | > 99 | fold less potent than fluticasone (ratio of ED50) ([1]; 100 μg/30 μg): threefold; fold less potent than fluticasone in terms of ED50 ([6]; antigen-induced airway eosinophilia and Sephadex-induced lung edema): 7–9; ED50, inhibition of accumulation of eosinophils in BALF ([6]; separate study, same preclinical model): 0.5 mg/kg; fold less potent than fluticasone at inducing adrenal involution (adrenal [7]): 44; fold less potent than fluticasone at inducing thymus involution (thymus [8]): sixfold; fold less potent than fluticasone at decreasing bone growth (bone growth): 22
3 |  |  | C[C@]12C=CC(=O)C=C1CC[C@@H]1[C@@H]2[C@@H](O)C[C@@]2(C)[C@H]1C[C@H]1O[C@@H](C3CCCCC3)O[C@]12C(=O)CO [des-CIC, desisobutyryl-ciclesonide] |  |  |  |  |  |  |  |  |  | > 99 | ratio of systemic exposure, des-CIC versus fluticasone at ED50 doses [12]: greater than sixfold

Reference: publication PMC2893943 (Nanoscale Research Letters, 2010)
